“And” between values parts separate entries of the source, which are not always exact repeats. Equal values may be shown once. “Also recorded” adds a separate entry of the source.
Legend:
Daudi cells [1] = assay: Ternary binding assay: recruitment of PE-labeled human IgG1k to Daudi cells (flow cytometry, MFI); assay type: cell-based; settings: duplicate columns
Description: Various technologies can be utilized to assess and/or characterize recruitment of antibodies to target cells, e.g., cancer cells. One such assay is a ternary binding assay. An exemplary protocol is described herein. Compounds were diluted in DMSO (MP 191418) to 1000× the starting concentration used in the assay into a 96 well polypropylene plate (Corning 3357). They were then serially diluted in ½ log increments to generate 8-12 concentrations in DMSO (assay dependent). These DMSO stocks were then step diluted 1/100 into PBS (VWR Cat. #20012043). Step diluted compound range was then added into the polypropylene assay plate 1/10 the volume of the assay volume. Daudi (ATCC CCL-213), a non-adherent cell line, were counted and centrifuged and resuspended at a concentration of 100,000 cells per 90 ul in Flow buffer: 1% BSA (American Bio AB01088-00100); 0.5 mM EDTA (VWR 45001-122); PBS (VWR Cat. #20012043) with 11.1 ug/mL human IgG1k Phycoerythrin labeled (SouthernBiotech #0151K-09 PE). The cells were then added into the polypropylene plate with the step diluted compounds and incubated at 37° C. for 30 min. At the end of the incubation, the cells were centrifuged and washed 2× with How buffer containing 0.5% Tween 20 (BP337-500). Samples were analyzed on a BD FacsCelesta. Mean fluorescence was analyzed using Graphpad Prism and curves were fit using log(inhibitor) vs. response—Variable slope (four parameters).

NK cells = assay: Depletion of CD38-expressing effector cells: purified NK cells, 18 h, Zombie viability dye; assay type: cell-based, human; settings: I-9 300 nM-10 nM, Daratumumab 3 ug/mL-0.1 ug/mL, IvIG 10 ug/mL, 18 h (FIG. 4)
From the text: In some embodiments, provided technologies provides various advantages compared to existing CD38-based technologies, e.g., those using CD38 antibodies. […] As appreciated by those skilled in the art, various technologies can be utilized to assess depleting of CD38-expressing effector cells. In one example, NK cells were purified from frozen stock using 3×10^7 PBMC preparations ([…] technologies) using EasySep™ Human NK cell Isolation Kit […] Technologies (cat #17955) according to manufacturer's instructions. NK cells were plated at the density of 2×10^6 cells per mL of OPTIMEM media, in a 100 uL volume per well of round bottom 96 well plates. Daratumumab was added to a final concentration range of 3 ug/mL to 0.1 ug/mL. […] IvIG was used at a final concentration of 10 ug/mL. Cells were mixed by pipetting up and down and incubated for 18 h at 37° C. At the end of the incubation period, cells were centrifuged at 400 g for 5 min and re-suspended in PBS. Following this, cells were stained with 1 uM Zombie viability dye (Biolegend, catalog #423111) according to manufacturer's instructions and incubated for 15 minutes at room temperature. […] Cells were analyzed on BD FACSCelesta flow cytometer (BD Biosciences). […] Percentages of Zombie green positive NK cells were analyzed and graphed using GraphPad Prism software.

Daudi cells [2] = assay: KILR ADCC killing assay: KILR-transfected Daudi cells with purified NK cells (% dead cells); assay type: cell-based; settings: for % dead cells, KILR ADCC killing assay: KILR Daudi cells with purified NK cells, duplicate columns
From the text: In some embodiments, CD38-ABT ARMs bind to target cells and antibodies, e.g., human antibodies. In some embodiments, such ternary structures present antibodies to effector cells such as NK cell and bind to, e.g., CD16a receptors. […] Daudi cells were transfected with KILR reporter construct (DiscoverX #97-0002). An attenuated lentivirus was designed to deliver a Moloney Murine Leukemia Virus (MMLV) engineered to drive expression of a housekeeping gene tagged with Enhanced ProLabel (ePL) a beta-Galactosidase (beta-gal) reporter fragment. This construct was designed to remain inside cells. Death leads to the release of the KILR reporter protein into the medium. Detection reagent (DiscoverX #97-0001L) contained the complementing beta-gal reporter fragment enzyme acceptor (EA). The two components combined to generate a chemiluminescent signal.

[3] = system: Effector cells (ADCC reporter cells) with Daudi cells; assay: ADCC reporter assay: Daudi cells, IVIG and ADCC reporter effector cells (luciferase, RLU); assay type: cell-based; settings: IVIG; for Luminescence, ADCC reporter assay: duplicate columns
Description: Daudi (ATCC CCL-213) cells were resuspended in Opti-MEM (Thermo Fisher Scientific #31985070), counted (Life Technologies Countless II cell counter) and plated (5,000 cells in 25 uL/well; Corning plates: 3917). Compounds w diluted in DMSO (MP 191418) to 1000× the starting concentration used in the assay into a 96 well polypropylene plate (Corning 3357). They were then serially diluted in ½ log increments to generate 8 concentrations in DMSO (assay dependent). These DMSO stocks were then step diluted 1/250 into Opti-MEM. Step diluted compound range was then added into the polypropylene assay plate 25 uL/well. The human antibody solution (Grifols IVIG Fleogogamma #61953-0005-2) was diluted to 40 ug/mL and added 25 uL/well. Effector cells (ADCC reporter cells—Promega kit: G7018) were added 37,500 in 25 uL/well. The assay was then incubated 18 h at 37° C. Following the induction period, the plate was equilibrated to 25° C. followed the addition of the luciferase substrate (75 uL/well, 1 vial in 10 mL of Bio-Glo assay buffer, Promega kit: G7018). The luminescence was measured (Biotek Synergy H1 microplate reader).

Structure (SMILES): CCCCC[C@@H]1NC(=O)[C@H](CCCNC(=N)N)NC(=O)[C@H](C)NC(=O)CSC[C@@H](C(=O)NCCOCCOCCOCCOCCOCCOCCn2nnc3c2CCC2C(CC3)C2COC(=O)N2CCC(C(=O)NCC(=O)N[C@H](CCC(=O)N[C@H](CCC(=O)N[C@H](CCC(=O)NCCCCCCCCCCCC(=O)O)C(=O)N[C@H](CCC(=O)N[C@H](CCC(=O)NCC(=O)NCC(=O)N[C@@H](CC(=O)O)C(=O)N[C@H]3CSSC[C@@H](C(=O)N[C@H](C(=O)O)[C@@H](C)O)NC(=O)[C@H](Cc4c[nH]c5ccccc45)NC(=O)[C@H](C(C)C)NC(=O)[C@H](CC(C)C)NC(=O)[C@H](CCC(=O)O)NC(=O)CNC(=O)[C@H](CC(C)C)NC(=O)[C@H](Cc4c[nH]cn4)NC(=O)[C@H](Cc4c[nH]c5ccccc45)NC(=O)[C@H](C)NC3=O)C(=O)O)C(=O)O)C(=O)O)C(=O)O)CC2)NC(=O)[C@H](CC(=O)O)NC(=O)[C@H](CCCCC)NC(=O)[C@H](Cc2ccc(-c3ccccc3)cc2)NC(=O)[C@H](CC(C)C)NC(=O)[C@H](C(C)C)NC(=O)CNC(=O)[C@H](CC(=O)O)NC(=O)[C@H](Cc2c[nH]cn2)NC(=O)[C@H](Cc2ccc(O)cc2)NC1=O (stereo partly shown) [I-9]
- MFI, recruitment of PE-labeled human IgG1k to Daudi cells (Daudi cells [1]; compound 0.03 nM): 2297 and 2037
- MFI, recruitment of PE-labeled human IgG1k to Daudi cells (Daudi cells [1]; compound 0.1 nM): 2514 and 2495
- MFI, recruitment of PE-labeled human IgG1k to Daudi cells (Daudi cells [1]; compound 0.3 nM): 2861 and 2727
- MFI, recruitment of PE-labeled human IgG1k to Daudi cells (Daudi cells [1]; compound 1 nM): 3063 and 2925
- MFI, recruitment of PE-labeled human IgG1k to Daudi cells (Daudi cells [1]; compound 3 nM): 4268 and 4210
- MFI, recruitment of PE-labeled human IgG1k to Daudi cells (Daudi cells [1]; compound 10 nM): 7133 and 6933
- MFI, recruitment of PE-labeled human IgG1k to Daudi cells (Daudi cells [1]; compound 30 nM): 10630 and 8384
- MFI, recruitment of PE-labeled human IgG1k to Daudi cells (Daudi cells [1]; compound 100 nM): 9899 and 10608
- MFI, recruitment of PE-labeled human IgG1k to Daudi cells (Daudi cells [1]; compound 300 nM): 7835 and 7873
- MFI, recruitment of PE-labeled human IgG1k to Daudi cells (Daudi cells [1]; compound 1000 nM): 4929 and 5108
- MFI, recruitment of PE-labeled human IgG1k to Daudi cells (Daudi cells [1]; compound 3000 nM): 4383 and 4301
- Depletion of CD38-expressing effector cells (NK cells) (NK cells): did not deplete CD38-expressing effector cells; also recorded: do not significantly deplete effector cells
- EC50 (Daudi cells [2]; KILR Daudi cells, purified NK cells, one set of experiments (FIG. 3)): 6.7 nM
- % dead cells, KILR ADCC killing assay (Daudi cells [2]; compound 0.3 nM): 5.1% and 5.5%
- % dead cells, KILR ADCC killing assay (Daudi cells [2]; compound 1 nM): 4.8% and 4.7%
- % dead cells, KILR ADCC killing assay (Daudi cells [2]; compound 3 nM): 5%
- % dead cells, KILR ADCC killing assay (Daudi cells [2]; compound 10 nM): 5.3% and 5.7%
- % dead cells, KILR ADCC killing assay (Daudi cells [2]; compound 30 nM): 6.1% and 6.9%
- % dead cells, KILR ADCC killing assay (Daudi cells [2]; compound 100 nM): 6.6% and 7.4%
- % dead cells, KILR ADCC killing assay (Daudi cells [2]; compound 300 nM): 7.3% and 8.1%
- % dead cells, KILR ADCC killing assay (Daudi cells [2]; compound 1000 nM): 6.8% and 6.7%
- EC50 ([3]; ADCC reporter assay): 5.5 nM
- EC70 ([3]; ADCC reporter cells, 18 h, one set of experiment (FIG. 2)): about 0.92 nM
- Luminescence, ADCC reporter assay ([3]; compound 0.3 nM, 18 h): 18458 RLU and 20362 RLU
- Luminescence, ADCC reporter assay ([3]; compound 1 nM, 18 h): 20777 RLU and 20342 RLU
- Luminescence, ADCC reporter assay ([3]; compound 3 nM, 18 h): 24006 RLU and 24206 RLU
- Luminescence, ADCC reporter assay ([3]; compound 10 nM, 18 h): 35274 RLU and 44761 RLU
- Luminescence, ADCC reporter assay ([3]; compound 30 nM, 18 h): 55170 RLU and 59273 RLU
- Luminescence, ADCC reporter assay ([3]; compound 100 nM, 18 h): 60746 RLU and 68867 RLU
- Luminescence, ADCC reporter assay ([3]; compound 300 nM, 18 h): 55313 RLU and 76306 RLU
- Luminescence, ADCC reporter assay ([3]; compound 1000 nM, 18 h): 51790 RLU and 65856 RLU

— patent US20230028880A1, “CD38-BINDING AGENTS AND USES THEREOF” (Biohaven Therapeutics Ltd., priority 2019, published 2023)
